One data set deals with T1, acid ceramidase (hACR) (Homo sapiens, UniProt Q13510).
T1 construct: expressed in transfected cells; cell lysate used
T1 sequence (Q13510 143-395 limits assumed): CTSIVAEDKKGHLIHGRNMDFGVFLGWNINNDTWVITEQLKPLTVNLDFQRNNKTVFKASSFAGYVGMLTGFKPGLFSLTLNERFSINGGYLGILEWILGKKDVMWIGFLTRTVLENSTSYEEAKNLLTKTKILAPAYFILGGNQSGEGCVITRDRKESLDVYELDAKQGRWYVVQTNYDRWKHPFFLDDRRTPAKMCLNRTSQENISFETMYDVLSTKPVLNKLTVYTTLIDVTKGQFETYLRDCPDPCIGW
T1 sequence (Q13510 22-142 limits assumed): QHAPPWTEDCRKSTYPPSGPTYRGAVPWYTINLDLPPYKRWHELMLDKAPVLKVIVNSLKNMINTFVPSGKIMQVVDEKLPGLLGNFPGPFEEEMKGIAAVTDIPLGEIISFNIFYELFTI
As to the kind of experiment: Acid ceramidase inhibition, biochemical fluorescent assay with cell lysates overexpressing acid ceramidase, substrate Rbm14-12. Conditions: cell lysates overexpressing acid ceramidase; 1 hr preincubation at RT; pH 4.5; substrate Rbm14-12 6.3 μM; read-out: hACR IC50. The gist of the method:
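Enzyme source was lysate (10 µg protein) from cells overexpressing acid ceramidase, preincubated 1 hr at RT with compound dose series in 25 mM NaAc, 100 mM NaCl, pH 4.5. Rbm14-12 (6.3 μM final) reacted 1 hr at RT; stop buffer (methanol, NaIO4, glycine, pH 10.6) 1 hr, fluorescence ex360/em446; IC50 from four-parameter fit.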

Data set [1] is described as follows: Compound solubility in water. In kind it is physicochemical.

In brackets after ≈: the same amount, converted by molar mass.

As usually defined, the IC50 is the concentration that inhibits the measured activity by half. By solubility is commonly meant the dissolved amount per volume that the medium holds. Read a low solubility as little dissolved substance. `CN1CCN(C(=O)NCCc2ccccc2)C(C)(C)C1` [Example 34, 2,2,4-Trimethyl-N-phenethylpiperazine-1-carboxamide]: the IC50 on acid ceramidase (hACR) is > 1 µM. This compound returned a solubility in data set [1] of 23.6 µM (≈ 6.5 µg/mL).

As to `CC1(C)CCc2cccc(F)c2N1C(=O)NCCc1ccccc1` [Example 35, 8-Fluoro-2,2-dimethyl-N-phenethyl-3,4-dihydroquinoline-1(2H)-carboxamide], the IC50 on acid ceramidase (hACR) was 0.2 to 1 µM. This compound showed a solubility in data set [1] of 6.02 µM (≈ 1.97 µg/mL).

In the case of `CCCCNC(=O)N1CCN(C)CC1(C)C` [Example 37, N-Butyl-2,2,4-trimethylpiperazine-1-carboxamide], the IC50 on acid ceramidase (hACR) is > 1 µM. The same compound gave a solubility in data set [1] of 19.1 µM (≈ 4.34 µg/mL).

Consider `CCCCNC(=O)N1CCN(C2CCCN(C)C2)CC1(C)C` (stereo not shown) [Example 38], for which, on acid ceramidase (hACR), the IC50 is > 1 µM. Also, the solubility in data set [1] came to 35.8 µM (≈ 11.1 µg/mL).

Take `CCCCNC(=O)N1CCC(OC2CCN(C)CC2)CC1(C)C` (stereo not shown) [Example 39, N-Butyl-2,2-dimethyl-4-((1-methylpiperidin-4-yl)oxy)piperidine-1-carboxamide]: the IC50 on acid ceramidase (hACR) was > 1 µM. The amount in solution in data set [1] (solubility) came to 34.8 µM (≈ 11.3 µg/mL).

On to `CC1(C)CCCCN1C(=O)NCCCc1ccccc1` [Example 40, 2,2-Dimethyl-N-(3-phenylpropyl)piperidine-1-carboxamide], for which, on acid ceramidase (hACR), the IC50 was < 0.2 µM. Besides, the solubility in data set [1] was found to be 23.4 µM (≈ 6.42 µg/mL).

With `CC(C)CCNC(=O)N1CCC(Oc2ccccc2)CC1(C)C` (stereo not shown) [Example 41, N-iso-Pentyl-2,2-dimethyl-4-phenoxypiperidine-1-carboxamide], the IC50 at acid ceramidase (hACR) lay within 0.2 to 1 µM. The compound also gave a solubility in data set [1] of 3.7 µM (≈ 1.18 µg/mL).

On to `CC(C)CCNC(=O)N1CCN(c2ccccc2)CC1(C)C` [Example 42, N-iso-Pentyl-2,2-dimethyl-4-phenylpiperazine-1-carboxamide], for which the IC50 at acid ceramidase (hACR) was > 1 µM. Besides, in data set [1], the concentration in solution (solubility) was 7 µM (≈ 2.12 µg/mL).

`CC1(C)CC2(CCCCO2)CCN1C(=O)NCCCCC1CC1` (stereo not shown) [Example 43, N-(4-Cyclopropylbutyl)-8,8-dimethyl-1-oxa-9-azaspiro[5.5]undecane-9-carboxamide]: the IC50 at acid ceramidase (hACR) was in the range of 0.2 to 1 µM. The compound also displayed a solubility in data set [1] of 16.5 µM (≈ 5.32 µg/mL).

For `C=CCCCCNC(=O)N1CCC2(CCCCO2)CC1(C)C` (stereo not shown) [Example 44, N-(Hex-5-en-1-yl)-8,8-dimethyl-1-oxa-9-azaspiro[5.5]undecane-9-carboxamide], the IC50 at acid ceramidase (hACR) lay within 0.2 to 1 µM. Also, in data set [1], the solubility was 20.8 µM (≈ 6.42 µg/mL).

As for `O=C(NCCc1ccccc1)N1CCCCC12CCCC2` [Example 45, N-Phenethyl-6-azaspiro[4.5]decane-6-carboxamide], the IC50 on acid ceramidase (hACR) lay within 0.2 to 1 µM. The compound also returned a solubility in data set [1] of 6 µM (≈ 1.72 µg/mL).

Regarding `O=C(NCCc1ccccc1)N1CCCCC12CCC2` [Example 46, N-Phenethyl-5-azaspiro 3.5 nonane-5-carboxamide], the IC50 at acid ceramidase (hACR) is > 1 µM. In addition, the concentration in solution in data set [1] (solubility) came to 17.5 µM (≈ 4.77 µg/mL).

As to `CC1(C)CCc2c(C#N)cccc2N1C(=O)NCCc1ccccc1` [Example 47, 5-cyano-2,2-dimethyl-N-phenethyl-3,4-dihydroquinoline-1(2H)-carboxamide], the IC50 at acid ceramidase (hACR) is 0.2 to 1 µM. The same compound returned a solubility in data set [1] of 1.7 µM (≈ 0.567 µg/mL).

As for `CN1CC(c2cccc3c2CCC(C)(C)N3C(=O)NCCc2ccccc2)C1` [Example 49], on acid ceramidase (hACR), the IC50 lay in the range of 0.2 to 1 µM. This compound also returned a solubility in data set [1] of 35.3 µM (≈ 13.3 µg/mL).

On to `CN1CC(c2ccc3c(c2)N(C(=O)NCCc2ccccc2)C(C)(C)CC3)C1` [Example 50], for which the IC50 on acid ceramidase (hACR) was < 0.2 µM. This compound also registered a solubility in data set [1] of 32.2 µM (≈ 12.2 µg/mL).

For `CC1(C)CCc2c(C3COC3)cccc2N1C(=O)NCCc1ccccc1` [Example 51], the IC50 at acid ceramidase (hACR) lay within 0.2 to 1 µM. In data set [1], this compound had a solubility of 0.9 µM (≈ 0.328 µg/mL).

For `CC1(C)CCc2ccc(C3COC3)cc2N1C(=O)NCCc1ccccc1` [Example 52], at acid ceramidase (hACR), the IC50 is 0.2 to 1 µM. Moreover, in data set [1], the concentration in solution (solubility) came to 5 µM (≈ 1.82 µg/mL).

With `CC1(C)COCCN1C(=O)NCCc1ccccc1` [Example 53, 3,3-Dimethyl-N-phenethylmorpholine-4-carboxamide], the IC50 on acid ceramidase (hACR) is > 1 µM. The solubility in data set [1] is 25.6 µM (≈ 6.72 µg/mL).

As for `CC1(C)CCCN1C(=O)NCCc1ccccc1` [Example 54, 2,2-Dimethyl-N-phenethylpyrrolidine-1-carboxamide], the half-maximal inhibitory concentration (IC50) at acid ceramidase (hACR) is > 1 µM. Also, in data set [1], the solubility is 25.6 µM (≈ 6.31 µg/mL).

Regarding `CC1(C)CC(c2ccccc2)CCN1C(=O)NCCc1ccccc1` (stereo not shown) [Example 55, 2,2-Dimethyl-N-phenethyl-4-phenylpipridine-1-carboxamide], the IC50 on acid ceramidase (hACR) was < 0.2 µM. Also, the concentration in solution in data set [1] (solubility) came to 0.4 µM (≈ 0.135 µg/mL).

For the compound `O=C(NCCCc1ccccc1)N1CCCCC12CCCC2` [Example 56, N-(3-Phenylpropyl)-6-azaspiro[4.5]decane-6-carboxamide], the IC50 on acid ceramidase (hACR) was < 0.2 µM. The concentration in solution in data set [1] (solubility) was 4.9 µM (≈ 1.47 µg/mL).

Consider `O=C(NCCCc1ccccc1)N1CCCC12CCCC2` [Example 57, N-(3-Phenylpropyl)-1-azaspiro[4.4]nonane-1-carboxamide], for which, at acid ceramidase (hACR), the IC50 is > 1 µM. In data set [1], this compound showed a solubility of 19.4 µM (≈ 5.56 µg/mL).

Turning to `O=C(NCCCc1ccc(F)cc1)N1CCCCC12CCCC2` [Example 58, N-(3-(4-Fluorophenyl)propyl)-6-azaspiro[4.5]decane-6-carboxamide], at acid ceramidase (hACR), the IC50 was < 0.2 µM. Also, the concentration in solution in data set [1] (solubility) came to 3 µM (≈ 0.955 µg/mL).

Regarding `O=C(NCCCc1ccc(F)cc1F)N1CCCCC12CCCC2` [Example 59, N-(3-(2,4-difluorophenyl)propyl)-6-azaspiro[4.5]decane-6-carboxamide], the IC50 on acid ceramidase (hACR) was < 0.2 µM. In data set [1], this compound displayed a solubility of 1.1 µM (≈ 0.37 µg/mL).

As for `O=C(NCCCc1ccccc1)N1CCOCC12CCCC2` [Example 60, N-(3-Phenylpropyl)-9-oxa-6-azaspiro[4.5]decane-6-carboxamide], at acid ceramidase (hACR), the IC50 is > 1 µM. In addition, the solubility in data set [1] turned out to be 25.2 µM (≈ 7.62 µg/mL).

In the case of `CC1(C)CC(F)(F)CCN1C(=O)NCCCc1ccccc1` [Example 61, 4,4-Difluoro-2,2-dimethyl-N-(3-phenylpropyl)piperidine-1-carboxamide], the IC50 on acid ceramidase (hACR) was < 0.2 µM. This compound also showed a solubility in data set [1] of 25.7 µM (≈ 7.98 µg/mL).

In the case of `CC1(C)CC(F)=CCN1C(=O)NCCCc1ccccc1` [Example 62, 4-fluoro-2,2-dimethyl-N-(3-phenylpropyl)-3,6-dihydropyridine-1(2H)-carboxamide], on acid ceramidase (hACR), the IC50 was > 1 µM. In data set [1], this compound returned a solubility of 15 µM (≈ 4.36 µg/mL).

`CN(C(=O)NCCCc1ccccc1)C12CCC(CC1)CC2` [Example 63, 1-(Bicyclo[2.2.2]octan-1-yl)-1-methyl-3-(3-phenylpropyl)urea]: the IC50 on acid ceramidase (hACR) was < 0.2 µM. This compound came in with a solubility in data set [1] of 3.1 µM (≈ 0.931 µg/mL).

As to `CN(C(=O)NCCCc1ccccc1)C1CN2CCC1CC2` (stereo not shown) [Example 64, 1-Methyl-3-(3-phenylpropyl)-1-(quinuclidin-3-yl)urea], on acid ceramidase (hACR), the IC50 was > 1 µM. In data set [1], this compound had a solubility of 35.4 µM (≈ 10.7 µg/mL).

As to `CN1CC(c2ccc3c(c2)N(C(=O)NCc2ccccc2)C(C)(C)CC3)C1` [Example 65, N-benzyl-2,2-dimethyl-7-(1-methylazetidin-3-yl)-3,4-dihydroquinoline-1(2H)-carboxamide], the IC50 at acid ceramidase (hACR) is 0.2 to 1 µM. In addition, the solubility in data set [1] was 40.2 µM (≈ 14.6 µg/mL).

Take `CN1CC(c2cccc3c2CCC(C)(C)N3C(=O)NCc2ccccc2)C1` [Example 66, N-Benzyl-2,2-dimethyl-5-(1-methylazetidin-3-yl)-3,4-dihydroquinoline-1(2H)-carboxamide]: the IC50 on acid ceramidase (hACR) lay in the range of 0.2 to 1 µM. This compound also yielded a solubility in data set [1] of 38.5 µM (≈ 14 µg/mL).

On to `CC1(C)Cc2ccccc2N1C(=O)NCCc1ccccc1` [Example 67, 2,2-Dimethyl-N-phenethylindoline-1-carboxamide], for which, at acid ceramidase (hACR), the IC50 was > 1 µM. The concentration in solution in data set [1] (solubility) was 8.3 µM (≈ 2.44 µg/mL).

`COc1cccc2c1N(C(=O)NCCc1ccccc1)C(C)(C)CC2` [Example 68, 8-Methoxy-2,2-dimethyl-N-phenethyl-3,4-dihydroquinoline-1(2H)-carboxamide]: the IC50 on acid ceramidase (hACR) was < 0.2 µM. The same compound had a solubility in data set [1] of 8.2 µM (≈ 2.78 µg/mL).

Take `CN1CC(N2CC(c3ccc4c(c3)N(C(=O)NCCc3ccccc3)C(C)(C)CC4)C2)C1` [Example 69, 2,2-Dimethyl-7-(1′-methyl-[1,3′-biazetidin]-3-yl)-N-phenethyl-3,4-dihydroquinoline-1(2H)-carboxamide]: the half-maximal inhibitory concentration (IC50) on acid ceramidase (hACR) is > 1 µM. For the same compound, the solubility in data set [1] stood at 35.5 µM (≈ 15.4 µg/mL).

For the compound `CC(=O)N1CC(c2ccc3c(c2)N(C(=O)NCCc2ccccc2)C(C)(C)CC3)C1` [Example 70, 7-(1-Acetylazetidin-3-yl)-2,2-dimethyl-N-phenethyl-3,4-dihydroquinoline-1(2H)-carboxamide], at acid ceramidase (hACR), the IC50 lay within 0.2 to 1 µM. For the same compound, the concentration in solution in data set [1] (solubility) came to 15.6 µM (≈ 6.33 µg/mL).

On to `CN(C(=O)NCCCC1(C(F)(F)F)CC1)C12CCC(CC1)CC2` [Example 71, 1-(Bicyclo[2.2.2]octan-1-yl)-1-methyl-3-(3-(1-(trifluoromethyl)cyclopropyl)propyl)urea], for which, on acid ceramidase (hACR), the IC50 was in the range of 0.2 to 1 µM. Moreover, in data set [1], the concentration in solution (solubility) was 5.9 µM (≈ 1.96 µg/mL).

`CC1(C)CC(F)(F)CCN1C(=O)NCCCC1(C(F)(F)F)CC1` [Example 72, 4,4-Difluoro-2,2-dimethyl-N-(3-(1-(trifluoromethyl)cyclopropyl)propyl)piperidine-1-carboxamide]: the IC50 on acid ceramidase (hACR) is 0.2 to 1 µM. In data set [1], this compound had a solubility of 21.4 µM (≈ 7.33 µg/mL).

As to `CC1(C)CC(F)=CCN1C(=O)NCCCC1(C(F)(F)F)CC1` [Example 73, 4-fluoro-2,2-Dimethyl-N-(3-(1-(trifluoromethyl)cyclopropyl)propyl)-3,6-dihydropyridine-1(2H)-carboxamide], the IC50 on acid ceramidase (hACR) is > 1 µM. The same compound gave a solubility in data set [1] of 4.3 µM (≈ 1.39 µg/mL).
